The target of one test is T1, kynurenine 3-hydroxylase (Rattus norvegicus, UniProt O88867).
T1 construct: from tissue; host or cells: rat liver homogenate (12000 rpm pellet, resuspended)
Nature of the test: Inhibitory activity on kynurenine 3-hydroxylase in rat liver homogenate. Format: biochemical. As to conditions: mean of two experiments, read-out: IC50, kynurenine 3-hydroxylase inhibition. Here is the method:
Study of the Inhibitory Activity on Kynurenine 3-Hydroxylase in Rat Liver
Rat livers are homogenised (1:8 weight/volume) in a buffer solution comprising: 0.25 M sucrose; 50 mM pH 7.4 Tris; 1 mM EDTA; and 1 mM DTT.
The homogenates are centrifuged for 10 minutes at 12000 rpm. The pellets are resuspended in the buffer solution described above (1:2 weight/volume).
The kynurenine 3-hydroxylase inhibition is determined by incubating 10 μL of the homogenate with NADPH (2 mM), kynurenine (100 μM) and various concentrations of the test compounds in a final volume of 100 μL at 37° C. for 5 minutes.
The compounds are tested at concentrations of between 1 μM and 300 μM. 3,4-Dimethoxy-N-[4-(3-nitrophenyl)thiazol-2-yl]benzenesulfonamide is a compound from the company Hoffmann-LaRoche (Basle, see J. Med. Chem., 40 (1997), 4738). 30H-Kynurenine was tested according to the protocol described by Carpendo et al. (Neuroscience, 61 (1994), 237-244).
Each of the experiments is repeated once and the IC50 values (in μmol/L) are calculated and given in the form of a mean of these two experiments.
Results concerning representative examples of family Ih are given in Table II below, in which is indicated the measurement of the percentage of remaining kynurenine 3-hydroxylase activity relative to the control (100%).

A further test deals with hepatocytes. Nature of the test: Hepatic glucose production in vitro in isolated hepatocytes (Table IV). The format is cell-based, Wistar rats. Here is the method:
The following two methods were used:
1) The hepatocytes are cultured for 16 to 18 hours in DMEM medium in the presence of AMP cyclase/dexamethasone at respective concentrations of 5×10^−5 M and 5×10^−7 M, with preincubation of the products at the test doses. After washing in pH 7.4 PBS buffer, the cells are incubated for three hours at 37° C. in a Krebs/AMPc/DEX buffer at the abovementioned concentrations. 0.1 μM insulin is used as reference substance. Two identical experiments are performed (Table III-1).
After washing in pH 7.4 PBS buffer, the cells are incubated for two hours at 37° C. in a Krebs buffer free of glucose and of insulin, containing lactate/pyruvate (10/1 mM) in the presence or absence of the test compounds. 10 μM MICA (5-methoxyindole-2-carboxylic acid) is used as reference substance. Two identical experiments are performed (Table III-2).
The protein assay is performed on the rest of the incubation medium via the Lowry method (BIO-RAD Dc protein assay, BIO-RAD 5000116).
The results are expressed as nmoles of glucose produced per […] of proteins. The statistical test used is the t test.

Test [1] has as its system perfused isolated pancreases from N0 STZ diabetic rats. Nature of the test: Secretion of insulin and glucagon in perfused isolated pancreases from N0 STZ diabetic rats. Format: cell-based. The conditions noted are these: perfused diabetic rat pancreas; absence of glucose, then 16.5 mM glucose; glucose-dependent. The source says: The results are expressed as the mean ±SEM (standard error of mean) of several experiments. The statistical test used is the Scheffé test.

Data on two compounds can be found in patent US20060052456A1, “Kynurenine 3-hydroxylase inhibitors for the treatment of diabetes by increasing the number of islets of langerhans cells” (MERCK PATENT GMBH, priority 2003, published 2006).

T1 sequence (O88867 whole entry): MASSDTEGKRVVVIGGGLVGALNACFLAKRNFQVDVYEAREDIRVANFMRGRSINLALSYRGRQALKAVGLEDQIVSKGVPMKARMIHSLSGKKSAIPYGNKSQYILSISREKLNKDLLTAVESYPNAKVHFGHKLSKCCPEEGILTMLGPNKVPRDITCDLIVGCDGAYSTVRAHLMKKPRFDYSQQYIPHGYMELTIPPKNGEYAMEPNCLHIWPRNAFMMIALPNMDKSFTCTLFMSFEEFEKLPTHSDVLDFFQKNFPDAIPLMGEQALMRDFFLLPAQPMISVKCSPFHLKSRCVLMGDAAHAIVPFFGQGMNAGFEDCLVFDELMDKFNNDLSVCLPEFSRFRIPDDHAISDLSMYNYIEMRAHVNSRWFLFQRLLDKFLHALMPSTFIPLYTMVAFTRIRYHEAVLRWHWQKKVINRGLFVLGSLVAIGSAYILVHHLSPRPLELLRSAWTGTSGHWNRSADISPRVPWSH

Take `O=C(C[C@@H](Cc1ccccc1)C(=O)O)c1ccc(F)cc1` [Compound i, (R)-2-benzyl-4-(4-fluorophenyl)-4-oxobutanoic acid]: the IC50 at kynurenine 3-hydroxylase came out at 1 ± 0.2 µM. The compound also showed an inhibition at 1 µM with hepatocytes (Rattus norvegicus, Hepatocyte, 1 μM) of 13%. In the test on hepatocytes (Rattus norvegicus, Hepatocyte), this compound displayed an inhibition at 10 µM of 28% and an inhibition at 100 µM of 62%. For the same compound, the “inhibition of hepatic glucose production in vitro (in words)” value in the test on hepatocytes (isolated rat hepatocytes) is given as “powerful inhibitors of hepatic glucose production in vitro”. In addition, in test [1], the “glucagon secretion (in words)” value is on record as “stimulation” and the “insulin secretion (in words)” value is “stimulation”.

On to `COc1ccc(S(=O)(=O)Nc2nc(-c3cccc([N+](=O)[O-])c3)cs2)cc1OC` [Compound k, 3,4-dimethoxy-N-[4-(3-nitrophenyl)thiazol-2-yl]benzenesulfonamide], for which, on kynurenine 3-hydroxylase, the IC50 turned out to be 10 ± 2.1 µM. In the test with hepatocytes (Rattus norvegicus, Hepatocyte), 10 µM produced 0% inhibition and the inhibition at 100 µM is 22%. Besides, in test [1], the “glucagon secretion (in words)” value was “stimulation” and the “insulin secretion (in words)” value is “stimulation”.

As a reminder, the IC50 is the concentration that inhibits the measured activity by half. Usually inhibition stands for the drop in the measured response relative to a control, in per cent. Read a high inhibition as a strong effect.
